Laboratory results: patent US12390440B2, “Immunomodulating trifluoromethyl-aminal azalides” (Zoetis Services LLC, priority 2020, dated 2025)
≈ marks a conversion by molar mass, not a printed value. Read-outs that look alike come from different tables or passages of the source.

Key:
TNF-α = assay: Bovine whole blood assay, LPS-induced TNF-α; format: cell-based; conditions: Bos taurus, fresh whole bovine blood, LPS 1 μg/mL
Procedure: (§1) (protected from light) for 30 minutes.

IL-1β = assay: Bovine whole blood assay, IL-1β; format: cell-based; conditions: overstimulation of IL-1β, perceived cellular toxicity concentration;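 also: compound concentration at which rising IL-1β release signals cytotoxicity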
Procedure: as §1

P. multocida 46572 = assay: In vivo mouse lung infection challenge model (murine efficacy); conditions: for % Survival: 20 mg/kg subcutaneous, harmonized survival relative to vehicle and M9 controls, study ended Day 10
Procedure: The challenge organism was P. multocida 46572. Target challenge concentration was 5×10^2 CFU/mouse. Isolated colonies from overnight growth (37° C. with 5% CO2) on trypticase soy agar (TSA II) blood plates were transferred to room temperature Brain Heart Infusion Broth (BHIB). The broth culture was incubated 3.5-4 hours to approximately mid-log phase of growth, as measured by forward light scatter at 600 nm (OD600, 0.200). The culture was centrifuged to collect the bacterial pellet. The pellet was re-suspended in BHIB and adjusted to provide an approximate concentration of 2.7 log^10 colony forming units (CFU) in 0.04 mL at the highest concentration. The challenge inoculum concentration was confirmed by serial dilutions of the inoculum for CFU enumeration. On Day −5, CD-1 female mice were received. Mice were given standard rodent diet and water ad libitum. On Day 0, bacterial inoculum (0.04 mL) was administered to each mouse (n=36) intranasally. Compounds of the invention were dosed at 20 mg/kg (0.1 mL) in a buffered (˜pH 5.4) propylene glycol, monothioglycerol and water solution by subcutaneous injection. Animals were observed from Days 1-10. The study was terminated on Day 10. In addition, some treatment groups were sampled at 6, 24, and 48 hours post bacterial challenge for RNA sequence analysis of lung tissue.
The murine efficacy model (P. multocida challenge) was optimized, and the treatment group size was powered to be able to observe statistically significant improvement of survival to expected ranges for immunomodulatory compounds. The experimental design was a randomized complete block design. Mice were individually identified and treatment groups comingled within a cage, with every treatment group equally represented across cages. Mortality was the primary variable. Mortality data was analyzed using a generalized mixed model with fixed effect of treatment and random effect of block. Survival time was also analyzed using the SAS PHREG (survival analysis) procedure to examine whether there were significant differences between treatment groups and the control group. Numerous compounds of the invention and M9 (positive control) were tested in this model at a dose of 20 mg/kg (Table 3). Typical percent survival for no treatment control is in the range of 0-20% based on study to study variation in challenge inoculum and rate of infection. […] Mouse survival for M9 was about 90-100%, further supporting its residual antibacterial properties against the bacterial strain. Harmonized survival accounts for % survival relative to vehicle (“−” control) and M9 (“+” control)) survival data (Table 3).

E. coli = assay: MIC, E. coli; conditions: Escherichia coli
S. aureus = assay: MIC, S. aureus; conditions: Staphylococcus aureus
P. multocida = assay: MIC, P. multocida; conditions: for MIC: Pasteurella multocida
M. haemolytica = assay: MIC, M. haemolytica; conditions: for MIC: Mannheimia haemolytica
[1] = tested on: BRD pathogens, M. haemolytica and P. multocida; assay: MIC screening panel, BRD pathogens (CLSI broth micro-dilution); conditions: read-out: MIC flag (*) at Ex #
IL-6 = assay: Bovine whole blood assay, IL-6; format: cell-based; conditions: Bos taurus, fresh whole bovine blood, LPS 1 μg/mL
Procedure: as §1

H. somni = assay: MIC, H. somni; conditions: H. somni strains
[2] = P. multocida 46572, murine efficacy challenge strain
[3] = M. haemolytica 46571, bovine efficacy challenge strain

**Q.** For `CCCNC[C@]1(O)[C@H](C)O[C@@H](O[C@H]2[C@H](C)[C@@H](O[C@@H]3O[C@H](C)C[C@H]4[C@H]3OC(C(F)(F)F)N4C)[C@](C)(O)C[C@@H](C)CN[C@H](C)[C@@H](O)[C@](C)(O)[C@@H](CC)OC(=O)[C@@H]2C)C[C@@]1(C)OC` (stereo partly drawn) [Example A-1, (2R,3S,4R,5R,8R,10R,11R,12S,13S,14R)-11-(((3aR,4S,6R,7aS)-1,6-dimethyl-2-(trifluoromethyl)hexahydro-2H-pyrano[4,3-d]oxazol-4-yl)oxy)-2-ethyl-13-(((2R,4R,5S,6S)-5-((propylamino)methyl)-5-hydroxy-4-methoxy-4,6-dimethyltetrahydro-2H-pyran-2-yl)oxy)-3,4,10-trihydroxy-3,5,8,10,12,14-hexamethyl-1-oxa-6-azacyclopentadecan-15-one], which IC50 (TNF-α) is on record?
**A.** < 3 µM

**Q.** And the “IL-1β OS of LPS” value (IL-1β)?
**A.** >500 µM

**Q.** And the “% Survival” value (P. multocida 46572)?
**A.** 43%

**Q.** What about the MIC (E. coli; E. coli 25922) of the same compound?
**A.** > 64 µg/mL

**Q.** What about the MIC (E. coli; E. coli W3110) of the same compound?
**A.** > 64 µg/mL

**Q.** What about the MIC (S. aureus) of the same compound?
**A.** > 64 µg/mL

**Q.** And the MIC (P. multocida; P. multocida 43137)?
**A.** > 64 µg/mL

**Q.** And the MIC (P. multocida; [2])?
**A.** 64 µg/mL (≈ 73.4 µM)

**Q.** And the MIC (P. multocida; read-out: MIC flag (*) at Ex. #, P. multocida challenge strain (46572K), Table 3)?
**A.** < 64 µg/mL

**Q.** And the MIC (M. haemolytica; M. haemolytica 12726)?
**A.** > 64 µg/mL

**Q.** And the MIC (M. haemolytica; M. haemolytica 33396)?
**A.** > 64 µg/mL

**Q.** And the MIC (M. haemolytica; [3])?
**A.** > 64 µg/mL

**Q.** And the MIC [1]?
**A.** < 64 µg/mL

**Q.** `CC[C@H]1OC(=O)[C@H](C)[C@@H](O[C@H]2C[C@@](C)(OC)[C@](O)(CNCCOC)[C@H](C)O2)[C@H](C)[C@@H](O[C@@H]2O[C@H](C)C[C@H]3[C@H]2OC(C(F)(F)F)N3C)[C@](C)(O)C[C@@H](C)CN[C@H](C)[C@@H](O)[C@]1(C)O` (stereo partly drawn) [Example A-2, (2R,3S,4R,5R,8R,10R,11R,12S,13S,14R)-11-(((3aR,4S,6R,7aS)-1,6-dimethyl-2-(trifluoromethyl)hexahydro-2H-pyrano[4,3-d]oxazol-4-yl)oxy)-2-ethyl-3,4,10-trihydroxy-13-(((2R,4R,5S,6S)-5-hydroxy-4-methoxy-5-(((2-methoxyethyl)amino)methyl)-4,6-dimethyltetrahydro-2H-pyran-2-yl)oxy)-3,5,8,10,12,14-hexamethyl-1-oxa-6-azacyclopentadecan-15-one] was tested. Which “% Survival” value (P. multocida 46572) did it give?
**A.** 18%

**Q.** With `CC[C@H]1OC(=O)[C@H](C)[C@@H](O[C@H]2C[C@@](C)(OC)[C@](O)(CNCCO)[C@H](C)O2)[C@H](C)[C@@H](O[C@@H]2O[C@H](C)C[C@H]3[C@H]2OC(C(F)(F)F)N3C)[C@](C)(O)C[C@@H](C)CN[C@H](C)[C@@H](O)[C@]1(C)O` (stereo partly drawn) [Example A-3, (2R,3S,4R,5R,8R,10R,11R,12S,13S,14R)-11-(((3aR,4S,6R,7aS)-1,6-dimethyl-2-(trifluoromethyl)hexahydro-2H-pyrano[4,3-d]oxazol-4-yl)oxy)-2-ethyl-3,4,10-trihydroxy-13-(((2R,4R,5S,6S)-5-hydroxy-5-(((2-hydroxyethyl)amino)methyl)-4-methoxy-4,6-dimethyltetrahydro-2H-pyran-2-yl)oxy)-3,5,8,10,12,14-hexamethyl-1-oxa-6-azacyclopentadecan-15-one] as the compound, how does the IC50 (TNF-α) read?
**A.** 20 µM

**Q.** What about the “IL-1β OS of LPS” value (IL-1β) of the same compound?
**A.** 32 µM

**Q.** And the IC50 (IL-6)?
**A.** 40 µM

**Q.** And the “% Survival” value (P. multocida 46572)?
**A.** 11%

**Q.** What about the MIC (E. coli; E. coli 25922) of the same compound?
**A.** > 64 µg/mL

**Q.** And the MIC (E. coli; E. coli W3110)?
**A.** > 64 µg/mL

**Q.** And the MIC (S. aureus)?
**A.** > 64 µg/mL

**Q.** And the MIC (P. multocida; P. multocida 43137)?
**A.** > 64 µg/mL

**Q.** And the MIC (P. multocida; [2])?
**A.** > 64 µg/mL

**Q.** What about the MIC (M. haemolytica; M. haemolytica 12726) of the same compound?
**A.** > 64 µg/mL

**Q.** And the MIC (M. haemolytica; M. haemolytica 33396)?
**A.** > 64 µg/mL

**Q.** And the MIC (M. haemolytica; [3])?
**A.** > 64 µg/mL

**Q.** What does the source list for `CC[C@H]1OC(=O)[C@H](C)[C@@H](O[C@H]2C[C@@](C)(OC)[C@](O)(CNCCN3CCCC3=O)[C@H](C)O2)[C@H](C)[C@@H](O[C@@H]2O[C@H](C)C[C@H]3[C@H]2OC(C(F)(F)F)N3C)[C@](C)(O)C[C@@H](C)CN[C@H](C)[C@@H](O)[C@]1(C)O` (stereo partly drawn) [Example A-12, (2R,3S,4R,5R,8R,10R,11R,12S,13S,14R)-11-(((3aR,4S,6R,7aS)-1,6-dimethyl-2-(trifluoromethyl)hexahydro-2H-pyrano[4,3-d]oxazol-4-yl)oxy)-2-ethyl-3,4,10-trihydroxy-13-(((2R,4R,5S,6S)-5-hydroxy-4-methoxy-4,6-dimethyl-5-(((2-(2-oxopyrrolidin-1-yl)ethyl)amino)methyl)tetrahydro-2H-pyran-2-yl)oxy)-3,5,8,10,12,14-hexamethyl-1-oxa-6-azacyclopentadecan-15-one]?
**A.** IC50 (TNF-α): 45 µM; IL-1β OS of LPS (IL-1β): 40 µM; IC50 (IL-6): 24 µM; MIC (E. coli; E. coli 25922): > 64 µg/mL; MIC (E. coli; E. coli W3110): > 64 µg/mL; MIC (S. aureus): > 64 µg/mL; MIC (P. multocida; P. multocida 43137): > 64 µg/mL; MIC (P. multocida; [2]): > 64 µg/mL; MIC (M. haemolytica; M. haemolytica 12726): > 64 µg/mL; MIC (M. haemolytica; M. haemolytica 33396): > 64 µg/mL; MIC (M. haemolytica; [3]): > 64 µg/mL

**Q.** `CC[C@H]1OC(=O)[C@H](C)[C@@H](O[C@H]2C[C@@](C)(OC)[C@](O)(CN3CCOCC3)[C@H](C)O2)[C@H](C)[C@@H](O[C@@H]2O[C@H](C)C[C@H]3[C@H]2OC(C(F)(F)F)N3C)[C@](C)(O)C[C@@H](C)CN[C@H](C)[C@@H](O)[C@]1(C)O` (stereo partly drawn) [Example B-1, (2R,3S,4R,5R,8R,10R,11R,12S,13S,14R)-11-(((3aR,4S,6R,7aS)-1,6-dimethyl-2-(trifluoromethyl)hexahydro-2H-pyrano[4,3-d]oxazol-4-yl)oxy)-2-ethyl-3,4,10-trihydroxy-13-(((2R,4R,5S,6S)-5-hydroxy-4-methoxy-4,6-dimethyl-5-(morpholinomethyl)tetrahydro-2H-pyran-2-yl)oxy)-3,5,8,10,12,14-hexamethyl-1-oxa-6-azacyclopentadecan-15-one] was tested. Which IC50 (TNF-α) did it give?
**A.** 10 µM

**Q.** What about the “IL-1β OS of LPS” value (IL-1β) of the same compound?
**A.** 13 µM

**Q.** And the MIC (E. coli; E. coli 25922)?
**A.** > 64 µg/mL

**Q.** And the MIC (E. coli; E. coli W3110)?
**A.** > 64 µg/mL

**Q.** What about the MIC (S. aureus) of the same compound?
**A.** > 64 µg/mL

**Q.** And the MIC (P. multocida; P. multocida 43137)?
**A.** > 64 µg/mL

**Q.** What about the MIC (P. multocida; [2]) of the same compound?
**A.** > 64 µg/mL

**Q.** What about the MIC (M. haemolytica; M. haemolytica 12726) of the same compound?
**A.** > 64 µg/mL

**Q.** And the MIC (M. haemolytica; M. haemolytica 33396)?
**A.** > 64 µg/mL

**Q.** What about the MIC (M. haemolytica; [3]) of the same compound?
**A.** > 64 µg/mL

**Q.** What does the source list for `CC[C@H]1OC(=O)[C@H](C)[C@@H](O[C@H]2C[C@@](C)(OC)[C@](O)(CN3CCN(C)CC3)[C@H](C)O2)[C@H](C)[C@@H](O[C@@H]2O[C@H](C)C[C@H]3[C@H]2OC(C(F)(F)F)N3C)[C@](C)(O)C[C@@H](C)CN[C@H](C)[C@@H](O)[C@]1(C)O` (stereo partly drawn) [Example B-2, (2R,3S,4R,5R,8R,10R,11R,12S,13S,14R)-11-(((3aR,4S,6R,7aS)-1,6-dimethyl-2-(trifluoromethyl)hexahydro-2H-pyrano[4,3-d]oxazol-4-yl)oxy)-2-ethyl-3,4,10-trihydroxy-13-(((2R,4R,5S,6S)-5-hydroxy-4-methoxy-4,6-dimethyl-5-((4-methylpiperazin-1-yl)methyl)tetrahydro-2H-pyran-2-yl)oxy)-3,5,8,10,12,14-hexamethyl-1-oxa-6-azacyclopentadecan-15-one]?
**A.** IC50 (TNF-α): 5 µM; IL-1β OS of LPS (IL-1β): 5 µM; % Survival (P. multocida 46572): 47%; clinical efficacy in P. multocida infection in mice (P. multocida 46572; mouse, in vivo): clinically efficacious

**Q.** Which “MIC values, range over strains” value (H. somni) does the source give for `CCN1CCN(c2cc3c(cc2F)c(=O)c(C(=O)O)cn3C2CC2)CC1` [enrofloxacin] here?
**A.** <0.06 to 1 µg/mL

**Q.** Which “MIC values, range over strains” value (H. somni) does the source give for `CS(=O)(=O)c1ccc([C@@H](O)[C@@H](CF)NC(=O)C(Cl)Cl)cc1` [florfenicol] here?
**A.** 0.12 to 2 µg/mL

**Q.** For `CCCN1C[C@H](C)[C@@H](O)[C@](C)(O)[C@@H](CC)OC(=O)[C@H](C)[C@@H](O[C@H]2C[C@@](C)(OC)[C@@H](O)[C@H](C)O2)[C@H](C)[C@@H](O[C@@H]2O[C@H](C)C[C@H](N(C)C)[C@H]2O)[C@](C)(O)C[C@H]1C` [gamithromycin, reference compound], which “MIC values, range over strains” value (H. somni) is on record?
**A.** 0.25 to 8 µg/mL

**Q.** What about the “MIC values, range over strains” value (P. multocida; the same P. multocida strains of the screening panel) of the same compound?
**A.** 1 to 2 µg/mL

**Q.** What about the “MIC values, range over strains” value (M. haemolytica; the same M. haemolytica strains of the screening panel) of the same compound?
**A.** 0.5 to 1 µg/mL
